# Results from patent US6953786B2, “Compositions comprising plant-derived polyphenolic compounds and inhibitors of reactive oxygen species and methods of using thereof” (The Regents of the University of California, priority 2002, dated 2005).
# Residues, ends and D or L forms follow the SMILES beside them. *: point of attachment. Cbz = O=C(OCc1ccccc1)*; CH2F = FC*
# Columns and labels:
# [1] = test system: Mia PACA-2 cells; assay: Intracellular ROS (H2O2) by flow cytometry of DCF-labeled cells; type: cell-based, human; settings: Mia PACA-2, 72 hours; DPI 15 μM
# Procedure: To determine the effect of serum in cancer cells, the following assay was conducted. Mia PACA-2 pancreatic cancer cells were cultured for 72 hours in the absence and presence of serum (15% FBS) or 100 ng/ml insulin growth factor-1 (IGF-1). Dichloroflyorescein diocetate (DCF-DA) was used to label the cells. Intracellular H2O2 was measured by flow cytometry of DCF-labeled cells. Intracellular ROS was measured using oxidation-sensitive cell-permeable fluorescent probe, dichlorofluorescein diacetate (DCF-DA) to measure H2O2. See Royall J A, and Ischiropoulos H. (1993) Arch. Biochem. Biophys. 302:348-355. To measure ROS, cells were collected after incubation, washed with PBS, and incubated for 15 minutes with […] DCF-DA. Samples were analyzed by flow cytometry. The amount of DCF-DA fluorescence correlated with the amount of ROS in the cells To determine the effects of serum, IGF-1, polyphenols and inhibitors of ROS on ROS production in cancer cells, the following assay was conducted. Mia PACA-2 cells were cultured for 72 hours in the presence of serum or IGF-1 with or without antioxidants, intracellular superoxide scavenger tiron (10 mM) or NADPH oxidase inhibitor, diphenylene iodonium (DPI, 15 μM) and trans-resveratrol (100 μM), genistein (100 μM), or a combination of polyphenolic compounds and antioxidants. Intracellular H2O2 was measured by flow cytometry of DCF-labeled cells. Mia PACA-2 cells and BSp73AS cells were cultured in Dulbecco's Modified Eagle's Medium supplemented with 10% heat inactivated FBS, penicillin G (100 U/ml) and streptomycin ([…]) in a humidified atmosphere comprising 5% (v/v) CO2. When the cells were 90% confluent they were detached, washed with alternating centrifugation and resuspension, plated and incubated in the same media with or without FBS or IGF-1 and with or without a given polyphenolic compound and with or without a given ROS inhibitor.
# [2] = test system: Mia PACA-2 cells; assay: Oligonucleosomal DNA fragmentation by cell death ELISA; type: cell-based, human; settings: Mia PACA-2, 72 hours, with serum
# Procedure: Mia PACA-2 cells were cultured for 72 hours in the presence of serum with or without 15 μM DPI, 10 mM Tiron, 100 μM genistein, 100 μM or 50 μM trans-resveratrol, or a combination thereof. Oligonucleosomal DNA fragmentation was measured in cell lysates by cell death ELISA.
# Annexin staining was conducted as described above. Cells were collected, washed with PBS, and centrifuged for 10 min at 200×g. DNA fragmentation was determined using Cell Death Detection ELISA Plus kit (Roche Molecular Biochemicals).
# To determine the role of caspases in the effects of combinations of agents on apoptosis, the effects of caspase-3 activity (DEVDase activity) as well as the effect of the broad spectrum caspase inhibitor, Z-VAD, on apoptosis was measured. Specifically, Mia PACA-2 cells were cultured for 72 hours in the presence of serum with or without 100 μM Z-VAD, 15 μM DPI, 100 μM trans-resveratrol, 100 μM genistein, a combination of trans-resveratrol and DPI, and a combination of genistein and DPI. DEVDase activity was measured in whole cell lysates with a fluorimetric assay. DNA fragmentation was measured in cell lysates by cell death ELISA.
# In particular, Mia PACA-2 cells were cultured for 72 hours in the presence of serum with or without 50 μM trans-resveratrol (RS), 15 μM DPI, a combination of DPI and trans-resveratrol (RS+DPI), 10 μM MG-132 alone and in combination with RS, DPI, and RS+DPI. Internucleosomal DNA fragmentation was measured in cell lysates by cell death ELISA.
# [3] = test system: Mia PACA-2 cells; assay: Mitochondrial membrane potential, DiOC6(3) retention; type: cell-based, human; settings: Mia PACA-2, 72 hours, in the presence of serum (FIG. 11)
# Procedure: In order to determine the effects polyphenolic compounds have on mitochondrial membrane potential, the retention of the dye 3,3′-dihexyloxacarbocyanine (DiOC6(3)) was measured as described by Pastorino J G, et al. (1998) J Biol Chem 273:7770-7775, which is herein incorporated by reference. BSp73AS cells were cultured for 6 hours in the absence (control) or presence of 0, 12, 24, 50, and 100 μM quercetin and trans-resveratrol. The cells were loaded with 1 μM DiOC6(3) during the last 30 minutes of treatment with a polyphenolic compound (or vehicle). The cells were then collected and pelleted by centrifugation. The supernatant was removed and the pellet was washed twice with PBS by alternate centrifugation and resuspension. The pellet was then lysed by addition of 1 ml of H2O and homogenized. The concentration of DiOC6(3) was read on a Perkin-Elmer LS-5 fluorescence spectrometer at 488 nm excitation and 500 nm emission. An aliquot of the cells was used for determining the DiOC6(3) fluorescence that was retained by the cells.
# Mia PACA-2 cells were cultured for 72 hours in the presence of serum and trans-resveratrol or genistein in the presence or absence of DPI or Tiron. Mitochondrial membrane potential was measured as described above.
# [4] = test system: NF-κB; assay: NF-κB DNA binding activity (EMSA / gel shift); type: cell-based, human; settings: Mia PACA-2, 72 hours, with serum; DPI 15 μM, trans-resveratrol 100 μM, genistein 100 μM, LY294002 50 μM
# Procedure: In order to determine the role of activated NF-κB in the regulation of apoptosis caused by the polyphenolic compound, the following assay was conducted. BSp73AS cells were cultured for 6 hours and Mia PACA-2 cells were cultured in the absence of serum or growth factors for 24 hours in the absence (controls) or presence of rutin, quercetin, trans-resveratrol, or genistein, each at 100 μM and 20 μM proteosome inhibitor MG-132. Nuclear proteins were isolated and analyzed for NF-κB DNA binding activity with electrophoretic mobility shift assay (EMSA).
# Specifically, aliquots of nuclear extracts with equal amount of protein, about 2 to about 10 μg, were mixed in 20 μl reactions with a buffer comprising 10 mM HEPES (pH 7.6), 50 mM KCl, 0.1 mM EDTA, 1 mM DTT, 10% (vol/vol) glycerol and 3 μg poly[d (I-C)]. After aliquots were equilibrated on ice for 5 minutes, binding reactions were stared by addition of 20-60,000 counts/min (20 fM) of ^32P-labeled DNA probes and allowed to proceed for 25-30 minutes at room temperature or up to 1 hour on ice. The oligonucleotide probe
# containing the κB binding motif (underlined) was annealed to the complementary oligonucleotide with a 5′-G overhang and end-labeled using Klenow DNA polymerase I. The samples were electrophoresed at room temperature in 0.5×TBE buffer (1×TBE 89 mM Tris base, 89 mM boric acid and 2 mM EDTA) on nondenaturing 4.5% polyacrylamide gel at 200 V. Gels were dried and directly analyzed in the PhosphorImager (Molecular Dynamics, Sunnyvale, Calif.). The experiment was repeated twice.
# To study the effects of combinations of DPI and polyphenolic compounds on serum-induced activation of NF-κB and protection from apoptosis, the following assay was conducted. Mia PACA-2 cells were cultured for 72 hours in the presence of serum with or without 100 μM trans-resveratrol, 15 μM DPI, a combination of trans-resveratrol, 100 μM genistein, or a combination of genistein and DPI. NF-κB binding activity was measured in nuclear extracts by gel shift assay as described above.
# To determine the effects of LY29400 and DPI on NF-κB activation, Mia PACA-2 cells were cultured for 72 hours in the presence of serum and 15 μM DPI with or without 50 μM LY294002. NF-κB DNA binding activity was measured in nuclear extracts by gel shift assay as described above.
# [5] = test system: PARP; assay: PARP proteolysis (Western blot); type: cell-based, rat; settings: BSp73AS, 6 hours, 50 μM inhibitor
# Procedure: (§1) BSp73AS cells were cultured for 6 hours and Mia PACA-2 cells were cultured for 24 hours in the presence or absence of 100 μM of each rutin, quercetin or trans-resveratrol and with or without 50 μM of each […]. The cells were washed twice with PBS and lysed by incubating for 20 minutes at 4° C. in lysis buffer comprising 0.15 M NaCl, 50 mM Tris (pH 7.2), 1% deoxycholic acid (wt/vol), 1% Triton X-100 (wt/vol), 0.1% […] (wt/vol) and 1 mM PMSF, as well as 5 μg/ml each of protease inhibitors, pepstatin, leupeptin, chymostatin, antipain, and aprotinin. Then the cell lysates were centrifuged for 20 minutes at 15,000 g at 4° C. The supernatants were separated by 4-20% SDS-PAGE for 2 hours at 120 V using precast Tris-glycine gels and a Mini-Cell gel apparatus (Novex, San Diego, Calif.). Separated proteins were electrophoretically transferred to a nitrocellulose membrane for 2 hours at 30 V using a Novex Blot Module (Novex, San Diego, Calif.). Nonspecific binding was blocked by 1 hour incubation of nitrocellulose membranes in 5% (wt/vol) nonfat dry milk in Tris-buffered saline (TBS; pH 7.5). Blots were then incubated overnight at 4° C. with rabbit polyclonal antibody against poly (ADP-ribose) polymerase (PARP) (Santa Cruz Biotechnology, Santa Cruz, Calif.) (1;3,000) in an antibody buffer comprising (1% (wt/vol) non-fat dry milk in TTBS (0.05% vol/vol) Tween-20 in TBS), washed 3 times with TTBS and finally incubated for 1 hour with a peroxidase-labeled secondary antibody in the antibody buffer. Blots were developed for visualization using ECL detection kit. To test for equal protein loading, the blots were stripped and re-probed with an antibody against tubulin. When processing of a protein was measured, a decrease in unprocessed full-length form was measured concomitantly with the increase in the cleaved, active form. The experiment was repeated 3 times with similar results.
# [6] = test system: PARP; assay: PARP proteolysis (Western blot); type: cell-based, human; settings: Mia PACA-2, 24 hours, 50 μM inhibitor
# Procedure: as §1
# [7] = test system: caspase-3; assay: Caspase-3 (DEVDase) activity, fluorogenic assay with DEVD-AMC; type: cell-based, human; settings: Mia PACA-2, 24 hours; Z-VAD FMK 50 μM (FIG. 12B)
# Procedure: To determine whether a polyphenolic compound activates caspase-3 activity in a time-dependent manner, the following assay was conducted. BSp73AS cells were cultured for 0, 1, 3, and 6 hours and Mia PACA-2 cells were cultured in the absence of serum or growth factors for 0, 1, 4, 6, and 24 hours in the presence of 100 μM or quercetin, trans-resveratrol, rutin, or control. Caspase-3 activity was measured in cell lysates with a fluorogenic assay using DEVD-AMC as a substrate. The results were normalized to the DEVDase activity in untreated cells.
# A fluorimetric assay for caspase-3 activity was conducted. […] Cytosolic protein extracts (supernatants) were collected, protein concentrations were determined and the extracts were aliquoted and stored at −80° C. […] The reaction was started by addition of caspase-3 substrate, the readings were taken at 0, 60, 90, and 120 minutes. Fluorescence was calibrated using a standard curve for AMC. The data were expressed as mol AMC/mg protein/min.
# Mia PACA-2 cells were cultured in the absence of serum or growth factors for 24 hours in the presence or absence of quercetin (100 μM), trans-resveratrol (100 μM), Z-VAD FMK (50 μM), cyclosporin A (5 μM) and/or aristolochic acid (50 μM). […] The reaction was started by addition of caspase-3 substrate, the readings were taken at 0, 60, 90, and 120 minutes. Fluorescence was calibrated using a standard curve for AMC. […] The data were expressed as mol AMC/mg protein/min. […]
# [8] = test system: cytochrome c; assay: Mitochondrial cytochrome c release (Western blot); type: cell-based, human; settings: Mia PACA-2, 24 hours, Z-VAD FMK 50 μM
# Procedure: In order to determine the effects polyphenolic compounds have on mitochondrial cytochrome c release and apoptosis, the following assay was conducted. BSp73AS cells were cultured for 6 hours and Mia PACA-2 cells were cultured in the absence of serum or growth factors for 24 hours in the absence or presence of 100 μM of each rutin, trans-resveratrol, genistein, or quercetin. Cells were washed twice with ice-cold PBS, pH 7.2 and resuspended in extraction buffer, about 500 μl, comprising 20 mM HEPES-KOH (pH 7.0), 10 mM KCl, 1 mM NaEGTA, 2 mM MgCl2, 1 mM EDTA, 1 mM DTT, 250 mM sucrose, 1 mM PMSF and protease inhibitors cocktail as provided above. The lysate was incubated for 30 minutes on ice and then homogenized using a glass dounce (80 strokes). Nuclei were removed by centrifugation at 1,000 g for 10 minutes at 4° C. Supernatant was additionally centrifuged for 1 hour at 100,000 g and the resulting supernatant (cytosolic fraction) and pellet (mitochondrial fraction) were collected separately, subjected to SDS-PAGE, and Western blotting using an antibody against cytochrome c. The experiment was repeated twice with similar results.
# In order to determine the role of the cancer cell's PTP in the effects of the polyphenolic compounds on mitochondrial function, caspase-3 activation and apoptosis, we performed the following experiments. Mia PACA-2 cells were cultured in the absence of serum or growth factors for 24 hours in the presence or absence of quercetin (100 μM), trans-resveratrol (100 μM), Z-VAD FMK (50 μM), cyclosporin A (5 μM) and/or aristolochic acid (50 μM). Cells were collected, washed with ice-cold PBS and resuspended in lysis buffer comprising 0.5% Nonidet P-40 or manufactured by the name IGEPAL CA-630, 0.5 mM EDTA, 150 mM NaCl and 50 mM Tris at pH 7.5. Cell lysates were placed for 30 minutes on a rotator at 4° C. and then centrifuged for 15 minutes at 15,000 g. Cytosolic protein extracts (supernatants) were collected, protein concentrations were determined and the extracts were aliquoted and stored at −80° C. Cytosolic extracts were subjected to SDS-PAGE and Western blot was performed with an antibody against cytochrome c. Blots were then stripped and re-probed with an antibody against tubulin to confirm equal protein loading. The experiment was repeated twice with similar results.
# In order to determine the effect of a combination of trans-resveratrol and quercetin on cytochrome c release and caspase-3 activity, the following was conducted. Mia PACA-2 cells were cultured in the absence of serum or growth factors for 24 hours in the presence or absence of trans-resveratrol (25 μM), quercetin (25 μM), or the combination of trans-resveratrol (25 μM) and quercetin (25 μM). Cytosolic extracts were prepared and subject to SDS-PAGE followed by protein transfer. Immunoblot was performed with an antibody against tubulin to confirm equal protein loading.
Structure (SMILES),"increase in ROS production caused by trans-resveratrol and genistein, effect of DPI [1]","oligonucleosomal DNA fragmentation (apoptosis) ([2]; DPI 15 μM, Tiron 10 mM, genistein 100 μM, trans-resveratrol 100 or 50 μM)",mitochondrial membrane potential [3],NF-κB activation caused by serum [4],PARP cleavage by quercetin and trans-resveratrol in the presence of caspase inhibitor [5],PARP cleavage by quercetin and trans-resveratrol in the presence of caspase inhibitor [6],"apoptosis (DNA fragmentation) caused by combinations of ROS inhibitor and polyphenolic compound, effect of Z-VAD ([2]; Z-VAD 100 μM)","caspase activity in cells treated with polyphenolic compounds, effect of Z-VAD [7]",release of cytochrome c into the cytoplasm in control (untreated) cells ([8]; no serum),cytosolic cytochrome c release caused by quercetin or trans-resveratrol ([8]; polyphenol 100 μM)
"c1ccc2c(c1)[I+]c1ccccc1-2 [DPI, diphenylene iodonium, reference compound]",prevented,either no or small effects,markedly depolarized the mitochondrial membrane,not inhibited,–,–,–,–,–,–
"O=S(=O)(O)c1cc(O)c(O)c(S(=O)(=O)O)c1 [Tiron, reference compound]",–,–,markedly depolarized the mitochondrial membrane,–,–,–,–,–,–,–
"COC(=O)C[C@H](NC(=O)[C@H](C)NC(=O)[C@@H](NC(=O)OCc1ccccc1)C(C)C)C(=O)CF [Z-VAD, reference compound] (Cbz-Val-Ala-Asp(OMe)-CH2F)",–,–,–,–,cleavage did not occur,cleavage did not occur,inhibits apoptosis caused by the combinations,blocked caspase activity,inhibited the release of cytochrome c,had no effect
